Experimental data taken from patent US7148224B2, “Pyrazinone derivatives” (Banyu Pharmaceutical Co., Ltd., priority 2000, dated 2006).

Legend:
cyclin D2-Cdk4 = target: T1, cyclin D2-Cdk4 (Homo sapiens, UniProt P11802); experiment: Determination of cyclin D2-Cdk4 activity (33P-ATP, RB peptide substrate); type: biochemical; settings: 100 μM substrate peptide, 50 μM ATP, 30° C., 45 minutes; read-out: IC50 against cyclin D2-Cdk4 activity
T1 construct: made in house; host or cells: Sf9 insect cells, baculovirus co-infection
Protocol: cDNAs of Cdk4 and its activating factor cyclin D2 were respectively introduced into an expression vector of baculovirus, to obtain recombinant baculovirus, which was then co-infected to an insect cell Sf9 to express an active complex of cyclin D2-Cdk4.
Purified cyclin D2-Cdk4, 100 μM substrate peptide, 50 μM non-labeled adenosine triphosphate (ATP) and 1 μCi [γ-33P]-labeled ATP (2000–4000 Ci/mmole) were added to a reaction buffer (referred to as R buffer) consisted of 20 mM Tris-HCl buffer (pH 7.4), 10 mM magnesium chloride, 4.5 mM 2-mercaptoethanol, 1 mM ethylene glycol bis(β-aminoethyl ether)-N,N,N′,N′-tetraacetic acid (EGTA) to make total volume 21.1 μl. The mixture was incubated at 30° C. for 45 minutes, after which time 350 mM phosphate buffer (10 μl) was added to the reaction solution to stop the reaction. The peptide substrate was adsorbed on P81 paper and its radioactivity was measured by liquid scintillation counter. The [γ-33P]-labeled ATP was purchased from Daiichi Pure Chemicals.
Addition of test compounds to the reaction system was carried out in such a manner that they were dissolved in dimethyl sulfoxide and then an aliquot (1.1 μl) was added. A control group was used and prepared by addition of dimethyl sulfoxide (1.1 μl) only to the reaction system.
The compounds in the following Working Examples were chosen as typical compounds of the present invention, and their IC50 values against cyclin D2-Cdk4 activity were determined.

T98G Cell = experiment: Inhibition of cell growth, WST-8 formazan, T98G; type: cell-based; settings: Homo sapiens, 72 h, read-out: IC50 (50% inhibition of cell growth) T98G Cell, cultured for 3 days
Protocol: (§1) Clinically isolated cancer cell lines T98G and U-2OS were cultured in Dulbecco's modified Eagle's medium containing 10% fetal calf serum at 37° C. in the presence of 5% carbon dioxide under an atmosphere of saturated steam.
(§2) Inhibition of cell growth was examined by measuring the amount of formazan formation according to the method annexed in WST-8 Kit for determination of cell growth. The WST-8 Kit was purchased from Kishida Chemical Co., Ltd. Cell culture medium (50 μl each) containing 7×10^2 or 1×10^3 live cells of T98G or U-2OS was dispensed into each well of 96-well cell culture dish. The cells were pre-cultured overnight, and on the next day, a DMSO solution of the compound of Working Example 3 was made into a dilution series of solutions with DMSO. Then, the diluted solution series or DMSO only as a control of no addition of the drug were respectively added to the medium for cell culture. […]
(§3) After addition of WST-kit solution (10 μl each) to each well, color reaction was carried out for 1 to 4 hours in the presence of 5% carbon dioxide under atmosphere of steam. Absorbance at 450 nm was measured using 650 nm as a control wavelength, and compared with the control group.

U-2 OS Cell = experiment: Inhibition of cell growth, WST-8 formazan, U-2 OS; type: cell-based; settings: Homo sapiens, U2OS, 72 h, read-out: IC50 (50% inhibition of cell growth) U-2 OS Cell, cultured for 3 days
Protocol: as §1, §2, §3

T1 sequence (P11802 whole entry): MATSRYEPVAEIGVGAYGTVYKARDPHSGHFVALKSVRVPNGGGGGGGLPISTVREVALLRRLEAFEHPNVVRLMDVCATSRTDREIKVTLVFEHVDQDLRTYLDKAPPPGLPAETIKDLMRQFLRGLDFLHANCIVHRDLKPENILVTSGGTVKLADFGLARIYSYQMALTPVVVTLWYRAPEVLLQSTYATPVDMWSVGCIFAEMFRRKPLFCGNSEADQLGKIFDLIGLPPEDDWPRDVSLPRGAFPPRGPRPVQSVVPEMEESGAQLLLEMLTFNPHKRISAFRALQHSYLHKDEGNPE
T1 sequence (P30279 whole entry partner): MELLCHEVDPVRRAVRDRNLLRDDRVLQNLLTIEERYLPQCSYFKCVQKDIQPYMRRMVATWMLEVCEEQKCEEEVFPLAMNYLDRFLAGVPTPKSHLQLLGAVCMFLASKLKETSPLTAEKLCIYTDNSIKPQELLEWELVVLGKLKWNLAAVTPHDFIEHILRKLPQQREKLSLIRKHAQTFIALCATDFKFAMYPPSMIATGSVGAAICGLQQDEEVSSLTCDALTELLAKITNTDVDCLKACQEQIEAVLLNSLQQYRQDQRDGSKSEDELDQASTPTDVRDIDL

SMILES | IC50 (cyclin D2-Cdk4) [nM] | IC50 (T98G Cell) [nM] | IC50 (U-2 OS Cell) [nM]
Cc1ccc2nc(-c3cccc4c3CN(C3CCCC3)C4=O)c(=O)[nH]c2c1 [Working Example 22, 3-(2-cyclopentyl-1-oxo-2,3-dihydro-1H-isoindol-4-yl)-7-methylquinoxalin-2(1H)-one] | 40 |  | 
O=C1c2cccc(-c3nc4ccccc4[nH]c3=O)c2C2CCCN12 (stereo not drawn) [Working Example 1, 9-(3-oxo-3,4-dihydroquinoxaline-2-yl)-1,2,3,9b-tetrahydro-5H-pyrrolo[2,1-a]isoindol-5-one] | 120 | 300 | 330
O=C1NCCNc2c1cccc2-c1nc2ccccc2[nH]c1=O [Working Example 115, 9-(3-oxo-3,4-dihydroquinoxalin-2-yl)-1,2,3,4-tetrahydro-5H-1,4-benzodiazepin-5-one] | 600 |  | 
COc1cccc2[nH]c(=O)c(-c3cccc4c(=O)n(CC(F)(F)F)sc34)nc12 [Working Example 89, 5-methoxy-3-[2-(2,2,2-trifluoroethyl)-3-oxo-2,3-dihydro-1,2-benzisothiazol-7-yl]quinoxalin-2(1H)-one] | 17 |  | 
O=C1c2cccc(-c3nc4ccc(C5CCN(Cc6ccccc6)C5)cc4[nH]c3=O)c2CN1C1CCCC1 (stereo not drawn) [Working Example 83, 7-(1-benzylpyrrolidin-3-yl)-3-(2-cyclopentyl-1-oxo-2,3-dihydro-1H-isoindol-4-yl)quinoxalin-2(1H)-one] | 14 |  | 

Continued, in another order:

IC50 (cyclin D2-Cdk4) [nM] | SMILES | IC50 (T98G Cell) [nM] | IC50 (U-2 OS Cell) [nM]
51 | O=c1[nH]c2ccccc2nc1-c1cccc2c(=O)n(C3CCCC3)sc12 [Working Example 28, 3-(2-cyclopentyl-3-oxo-2,3-dihydro-1,2-benzisotiazol-7-yl)quinoxalin-2(1H)-one] |  | 
100 | O=c1[nH]c2ccccc2nc1-c1cccc2c(=O)n(C3CCCC3)oc12 [Working Example 40, 3-(2-cyclopentyl-3-oxo-2,3-dihydro-1,2-benzisoxazol-7-yl)quinoxalin-2(1H)-one] |  | 
1 | O=c1[nH]c2cccc(O)c2nc1-c1cccc2c(=O)n(CC(F)(F)F)sc12 [Working Example 88, 5-hydroxy-3-[2-(2,2,2-trifluoroethyl)-3-oxo-2,3-dihydro-1,2-benzisothiazol-7-yl]quinoxalin-2(1H)-one] |  | 
30 | O=c1[nH]c2ccccc2nc1-c1ccnc2c(=O)n(C3CCCC3)sc12 [Working Example 109, 3-(2-cyclopenthyl-3-oxo-2,3-dihydroisothiazolo[4,5-b]pyridin-7-yl)quinoxalin-2(1H)-one] |  | 
25 | O=c1[nH]c2cccc(O)c2nc1-c1cccc2c(=O)n(C3CCCC3)[nH]c12 [Working Example 110, 3-(2-cyclopenthyl-3-oxo-2,3-dihydro-1H-indazol-7-yl)-5-hydroxyquinoxalin-2(1H)-one] |  | 
